# What was measured:
# S. aureus 308A-1 [1] = assay: Antibacterial activity against gram-positive bacteria (MIC on Tripticase Soy Agar); type: cell-based; conditions: Staphylococcus aureus, 308A1, Medium: Tripticase Soy Agar, Inoculum size: 10^8 cfu/ml
# Excerpt: (§1) Thus obtained Compound (I) is useful as medicines, for example, antibiotics against certain types of gram-positive and gram-negative beacteria. [table] [table]
# S. aureus 308A-1 [2] = assay: Antibacterial activity in mice, s.c. (ED50); type: in vivo; conditions: Staphylococcus aureus, 308A1, sc
# Excerpt: as §1
MIC (S. aureus 308A-1 [1]) [µg/mL],SMILES,ED50 (S. aureus 308A-1 [2]) [mg/kg]
100,C=C/C=C/C(=O)NCC(O)CC(N)CC(=O)NCCC(=N)N (stereo not shown) [Compound 38b],6.25
> 100,C/C=C\C=C\C(=O)NCC(O)CC(CC(=O)NCCC(=N)N)NC (stereo not shown) [Compound 80],9.64
> 100,C/C=C\C=C\C(=O)NCC(O)CC(CC(=O)NCCC(=N)N)NCC (stereo not shown) [Compound 82],25
> 100,C/C=C\C=C\C(=O)NCC(O)CC(CC(=O)NCCC(=N)N)NC(=O)C(N)CCCCC(=O)OC (stereo not shown) [Compound 86b],25
> 100,"CN(CC(=O)O)NC(=O)C[C@H](N)C[C@@H](O)CN [Negamycin, 2-(3R,5R)-3,6-diamino-5-hydroxyhexanoyl-1-methylhydrazinoacetic acid, reference compound]",38.6
